Results reported in article PMC12139422, “Structural basis for phosphatidylcholine synthesis by bacterial phospholipid N-methyltransferases” (The Journal of Biological Chemistry, 2025).

Tests used:
AtPmtAΔN25 [1] = target: T1, AtPmtAΔN25 (Agrobacterium fabrum, UniProt A9CKE9); experiment: X-ray crystal structure ([…] Å); type: binding; conditions: cocrystallised with SAM at 10:1 ligand-to-protein, pH 8.0, 20 °C; density assigned to MTA as SAM cleavage product; SAM site
T1 construct: gene Atu0300; lacks residues 1-25 (N-terminal amphipathic helix); N-terminal His6-tag cut with HRV 3C protease; expressed in E. coli C43(DE3); full length 197 residues; four molecules in the asymmetric unit
T1 sequence (A9CKE9 26-197): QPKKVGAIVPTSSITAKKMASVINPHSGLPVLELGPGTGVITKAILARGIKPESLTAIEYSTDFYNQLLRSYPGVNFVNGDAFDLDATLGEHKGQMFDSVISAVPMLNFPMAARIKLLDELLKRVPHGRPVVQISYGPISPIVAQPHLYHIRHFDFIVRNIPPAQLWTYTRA

AtPmtAΔN25 [2] = target: T1, AtPmtAΔN25; experiment: X-ray crystal structure ([…] Å) and 1H-15N HSQC NMR titration; type: binding; conditions: cocrystallised at 10:1 ligand-to-protein, pH 8.0, 20 °C; NMR titration 0-10 equivalents, pH 7.0, 10 °C; SAM site (Gly-rich loop)

CSC[C@H]1O[C@@H](n2cnc3c(N)ncnc32)[C@H](O)[C@@H]1O [5′-methylthioadenosine]
X-ray crystal structure (2.04 Å) (AtPmtAΔN25 [1]): Therefore, we assigned the electron density to MTA

Nc1ncnc2c1ncn2[C@@H]1O[C@H](CSCC[C@H](N)C(=O)O)[C@@H](O)[C@H]1O [SAH]
X-ray crystal structure (1.95 Å) and 1H-15N HSQC NMR titration (AtPmtAΔN25 [2]): All four AtPmtAΔN25 molecules in the asymmetric unit contained SAH molecules with clear electron densities
